Laboratory results taken from US20080139558A1, “QUINOLONES USEFUL AS INDUCIBLE NITRIC OXIDE SYNTHASE INHIBITORS” (KALYPSYS, INC., priority 2006, published 2008).

molecular target: T1, human iNOS (Homo sapiens, UniProt P35228); experiment: DAN assay of nitric oxide production (hiNOS); format: cell-based; settings: enzyme expressed in HEK293 cells transiently transfected with human iNOS
T1 construct: expressed in transfected cells; host or cells: HEK293
Excerpt: The source of nitric oxide synthase (NOS) enzyme can be generated in several ways including induction of endogenous iNOS using cytokines and/or lipopolysaccharide (LPS) in various cell types known in the art. Alternatively, the gene encoding the enzyme can be cloned and the enzyme can be generated in cells via heterologous expression from a transient or stable expression plasmid with suitable features for protein expression as are known in the art. Enzymatic activity (nitric oxide production) is calcium independent for iNOS, while the constitutive NOS isoforms, nNOS and eNOS, become active with the addition of various cofactors added to cellular media or extract as are well known in the art. Enzymes specified in Table 1 were expressed in HEK293 cells transiently transfected with human iNOS.
A major metabolic pathway for nitric oxide is to nitrate and nitrite, which are stable metabolites within tissue culture, tissue, plasma, and urine (S Moncada, A Higgs, N Eng J Med 329, 2002 (1993)).
The level of nitrate or nitrite in the specimen can be quantified by any method known in the art which provides adequate sensitivity and reproducibility. A variety of protocols have also been described for detecting and quantifying nitrite and nitrate levels in biological fluids by ion chromatography (e.g., A Everett et al., J. Chromatogr. 706, 437 (1995); J M Monaghan et al., J. Chromatogr. 770, 143 (1997)), high-performance liquid chromatography (e.g., M Kelm et al., Cardiovasc. Res. 41, 765 (1999)), and capillary electrophoresis (MA Friedberg et al., J. Chromatogr. 781, 491 (1997)). For example, 2,3-diaminonaphthalene reacts with the nitrosonium cation that forms spontaneously from NO to form the fluorescent product 1H-naphthotriazole. Using 2,3-diaminonaphthalene (“DAN”), researchers have developed a rapid, quantitative fluorometric assay that can detect from 10 nM to 10 μM nitrite and is compatible with a multi-well microplate format. […] DAN reacts with nitrite ion and gives fluorescent naphthotriazole (MC Carré et al., Analusis 27, 835-838 (1999)). Table 1 provides the test results of various compounds of the subject invention using the DAN assay.
A specimen can be processed prior to determination of nitrate or nitrite as required by the quantification method, or in order to improve the results, or for the convenience of the investigator. For example, processing can involve centrifuging, filtering, or homogenizing the sample. If the sample is whole blood, the blood can be centrifuged to remove cells and the nitrate or nitrite assay performed on the plasma or serum fraction. If the sample is tissue, the tissue can be dispersed or homogenized by any method known in the art prior to determination of nitrate or nitrite. It may be preferable to remove cells and other debris by centrifugation or another method and to determine the nitrate or nitrite level using only the fluid portion of the sample, or the extracellular fluid fraction of the sample. The sample can also be preserved for later determination, for example by freezing of urine or plasma samples. When appropriate, additives may be introduced into the specimen to preserve or improve its characteristics for use in the nitrate or nitrite assay.
The “level” of nitrate, nitrite, or other NO-related product usually refers to the concentration (in moles per liter, micromoles per liter, or other suitable units) of nitrate or nitrite in the specimen, or in the fluid portion of the specimen. However, other units of measure can also be used to express the level of nitrate or nitrite. For example, an absolute amount (in micrograms, milligrams, nanomoles, moles, or other suitable units) can be used, particularly if the amount refers back to a constant amount (e.g., grams, kilograms, milliliters, liters, or other suitable units) of the specimens under consideration. A number of commercially available kits can be used. […]

T1 sequence (P35228 whole entry): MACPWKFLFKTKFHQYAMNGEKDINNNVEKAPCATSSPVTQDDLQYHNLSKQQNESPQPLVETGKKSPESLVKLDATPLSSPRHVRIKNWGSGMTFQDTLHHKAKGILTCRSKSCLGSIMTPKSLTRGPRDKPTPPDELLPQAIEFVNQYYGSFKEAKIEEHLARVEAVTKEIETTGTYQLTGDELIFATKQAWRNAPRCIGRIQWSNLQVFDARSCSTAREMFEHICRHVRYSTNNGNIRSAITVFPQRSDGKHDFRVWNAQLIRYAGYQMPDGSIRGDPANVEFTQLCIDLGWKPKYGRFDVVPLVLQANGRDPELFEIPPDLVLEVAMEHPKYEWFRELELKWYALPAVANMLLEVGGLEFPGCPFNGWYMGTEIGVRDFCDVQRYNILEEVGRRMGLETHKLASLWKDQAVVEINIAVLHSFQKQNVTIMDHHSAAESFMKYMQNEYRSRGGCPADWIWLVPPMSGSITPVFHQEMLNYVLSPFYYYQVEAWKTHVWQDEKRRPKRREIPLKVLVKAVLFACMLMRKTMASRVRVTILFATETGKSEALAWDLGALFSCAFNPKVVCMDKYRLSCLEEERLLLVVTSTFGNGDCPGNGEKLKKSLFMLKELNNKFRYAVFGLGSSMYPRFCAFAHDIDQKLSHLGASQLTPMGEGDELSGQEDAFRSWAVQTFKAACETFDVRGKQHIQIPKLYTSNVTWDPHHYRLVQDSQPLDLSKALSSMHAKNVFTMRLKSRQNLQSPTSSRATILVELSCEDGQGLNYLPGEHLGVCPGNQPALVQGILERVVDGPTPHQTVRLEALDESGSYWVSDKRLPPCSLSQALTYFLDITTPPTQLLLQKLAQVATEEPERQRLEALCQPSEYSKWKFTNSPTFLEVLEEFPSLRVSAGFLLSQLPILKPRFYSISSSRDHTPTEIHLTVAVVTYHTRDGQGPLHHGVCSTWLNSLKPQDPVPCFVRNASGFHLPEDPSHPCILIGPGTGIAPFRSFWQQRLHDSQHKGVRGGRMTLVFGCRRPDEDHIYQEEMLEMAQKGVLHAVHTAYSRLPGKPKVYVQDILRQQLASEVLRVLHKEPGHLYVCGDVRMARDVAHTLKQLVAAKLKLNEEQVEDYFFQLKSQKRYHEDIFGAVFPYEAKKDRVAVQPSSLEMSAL

SMILES | EC50 [µM]
O=c1cc(Cn2c(CC3CCCC3)nc3ccccc32)c2ccc(F)c(F)c2[nH]1 [Example 215, 4-((2-(Cyclopentylmethyl)-1H-benzo[d]imidazol-1-yl)methyl)-7,8-difluoroquinolin-2(1H)-one] | ≤ 5
CC(C)c1nc2cc(F)c(F)cc2n1Cc1cc(=O)[nH]c2c(F)c(F)ccc12 [Example 229, 7,8-Difluoro-4-((5,6-difluoro-2-isopropyl-1H-benzo[d]imidazol-1-yl)methyl)quinolin-2(1H)-one] | > 5
Cc1ncsc1C(=O)N(c1cccc(Cl)c1)C(C)c1cc(=O)[nH]c2c(F)cccc12 (racemic) [Example 113, N-(3-Chlorophenyl)-N-(1-(8-fluoro-2-oxo-1,2-dihydroquinolin-4-yl)ethyl)-4-methylthiazole-5-carboxamide] | ≤ 5
Cc1ncsc1C(=O)N(Cc1cc(=O)[nH]c2c(F)c(F)ccc12)c1ccc(F)cc1 [Example 183, N-(4-Fluorolphenyl)-N-((7,8-fluoro-2-oxo-1,2-dihydroquinolin-4-yl)methyl)-4-methylthiazole-5-carboxamide] | ≤ 5
O=c1cc(Cn2c(CN3CCOCC3)nc3ccccc32)c2ccc(F)c(F)c2[nH]1 [Example 194, 7,8-Difluoro-4-((2-(morpholinomethyl)-1H-benzo[d]imidazol-1-yl)methyl)quinolin-2(1H)-one] | > 5
Cc1ccc(C)c(-c2nc3ccccc3n2Cc2cc(=O)[nH]c3c(F)c(F)ccc23)c1 [Example 243, 4-((2-(2,5-Dimethylphenyl)-1H-benzo[d]imidazol-1-yl)methyl)-7,8-difluoroquinolin-2(1H)-one] | > 5
Cc1ncsc1C(=O)N(Cc1cc(=O)[nH]c2c(F)c(F)ccc12)c1cc(F)cc(Cl)c1 [Example 89] | ≤ 5
O=C(c1ccc2ccccc2c1)N(Cc1cc(=O)[nH]c2c(F)cccc12)c1cccc(Cl)c1 [Example 83, N-(3-Chlorophenyl)-N-((8-fluoro-2-oxo-1,2-dihydroquinolin-4-yl)methyl)-2-naphthamide] | > 5
O=C1CCN(c2ccccc2)N1Cc1cc(=O)[nH]c2c(F)c(F)ccc12 [Example 252, 7,8-Difluoro-4-((5-oxo-2-phenylpyrazolidin-1-yl)methyl)quinolin-2(1H)-one] | ≤ 5
Cc1ncsc1C(=O)N(Cc1cc(=O)[nH]c2c(F)ccc(C)c12)c1cccc(Cl)c1 [Example 50, N-(3-Chlorophenyl)-N-((8-fluoro-5-methyl-2-oxo-1,2-dihydroquinolin-4-yl)methyl)-4-methylthiazole-5-carboxamide] | > 5
Cc1nc(Br)sc1C(=O)N(Cc1cc(=O)[nH]c2ccccc12)c1ccccc1 [Example 99, 2-Bromo-4-methyl-N-((2-oxo-1,2-dihydroquinolin-4-yl)methyl)-N-phenylthiazole-5-carboxamide] | ≤ 5
Cc1ncsc1C(=O)N(Cc1cc(=O)[nH]c2c(F)cccc12)c1cccc(Cl)c1 [Example 43, N-(3-Chlorophenyl)-N-((8-fluoro-2-oxo-1,2-dihydroquinolin-4-yl)methyl)-4-methylthiazole-5-carboxamide] | > 5
Cc1ncsc1C(=O)N(Cc1cc(=O)[nH]c2c(Br)ccc(F)c12)c1cccc(Cl)c1 [Example 107, N-((8-Bromo-5-fluoro-2-oxo-1,2-dihydroquinolin-4-yl)methyl)-N-(3-chlorophenyl)-4-methylthiazole-5-carboxamide] | > 5
Cc1cccc(C(=O)N(Cc2cc(=O)[nH]c3c(F)cccc23)c2cccc(Cl)c2)c1 [Example 58, N-(3-Chlorophenyl)-N-((8-fluoro-2-oxo-1,2-dihydroquinolin-4-yl)methyl)-3-methylbenzamide] | > 5
Cc1ncsc1C(=O)N(Cc1cc(=O)[nH]c2c(F)cccc12)c1ccc(F)c(F)c1 [Example 92, N-(3,4-Difluorophenyl)-N-((8-fluoro-2-oxo-1,2-dihydroquinolin-4-yl)methyl)-4-methylthiazole-5-carboxamide] | ≤ 5
CN(C)c1ccccc1-c1nc2ccccc2n1Cc1cc(=O)[nH]c2c(F)c(F)ccc12 [Example 242, 4-((2-(2-(Dimethylamino)phenyl)-1H-benzo[d]imidazol-1-yl)methyl)-7,8-difluoroquinolin-2(1H)-one] | > 5
CC(Cc1nc2ccccc2n1Cc1cc(=O)[nH]c2c(F)c(F)ccc12)C(F)(F)F (racemic) [Example 222, 7,8-Difluoro-4-((2-(3,3,3-trifluoro-2-methylpropyl)-1H-benzo[d]imidazol-1-yl)methyl)quinolin-2(1H)-one] | ≤ 5
O=c1cc(Cn2c(C3CCC3)nc3ccccc32)c2ccc(F)c(F)c2[nH]1 [Example 207, 4-((2-Cyclobutyl-1H-benzo[d]imidazol-1-yl)methyl)-7,8-difluoroquinolin-2(1H)-one] | ≤ 5
Cc1cccc2c(CN(C(=O)c3ccco3)c3ccccc3)cc(=O)[nH]c12 [Example 16, N-((8-Methyl-2-oxo-1,2-dihydroquinolin-4-yl)methyl)-N-phenylfuran-2-carboxamide] | ≤ 5
O=C(c1ccc(F)cc1)N(Cc1cc(=O)[nH]c2c(F)cccc12)c1cccc(Cl)c1 [Example 56, N-(3-Chlorophenyl)-4-fluoro-N-((8-fluoro-2-oxo-1,2-dihydroquinolin-4-yl)methyl)benzamide] | > 5
Cn1cncc1C(=O)N(Cc1cc(=O)[nH]c2c(F)cccc12)c1cccc(Cl)c1 [Example 48, N-(3-Chlorophenyl)-N-((8-fluoro-2-oxo-1,2-dihydroquinolin-4-yl)methyl)-1-methyl-1H-imidazole-5-carboxamide] | > 5
Cc1ncsc1C(=O)N(Cc1cc(=O)[nH]c2ccccc12)c1cccc(C(F)(F)F)c1 [Example 40, 4-Methyl-N-((2-oxo-1,2-dihydroquinolin-4-yl)methyl)-N-(3-(trifluoromethyl)phenyl)thiazole-5-carboxamide] | > 5
O=c1cc(Cn2c(-c3ccncc3Cl)nc3ccccc32)c2ccc(F)c(F)c2[nH]1 [Example 248, 4-((2-(3-Chloropyridin-4-yl)-1H-benzo[d]imidazol-1-yl)methyl)-7,8-difluoroquinolin-2(1H)-one] | ≤ 5
Cc1ncsc1C(=O)N(Cc1cc(=O)[nH]c2cc(F)c(F)cc12)c1cccc(Cl)c1 [Example 109, N-(3-Chlorophenyl)-N-((6,7-difluoro-2-oxo-1,2-dihydroquinolin-4-yl)methyl)-4-methylthiazole-5-carboxamide] | ≤ 5
O=C(c1ccccc1F)N(Cc1cc(=O)[nH]c2c(F)cccc12)c1cccc(Cl)c1 [Example 54, N-(3-Chlorophenyl)-2-fluoro-N-((8-fluoro-2-oxo-1,2-dihydroquinolin-4-yl)methyl)benzamide] | > 5
Cc1nnsc1C(=O)N(Cc1cc(=O)[nH]c2c(F)c(F)ccc12)c1cccc(Cl)c1 [Example 110, N-(3-Chlorophenyl)-N-((7,8-difluoro-2-oxo-1,2-dihydroquinolin-4-yl)methyl)-4-methyl-1,2,3-thiadiazole-5-carboxamide] | ≤ 5
Cc1ncsc1C(=O)N(Cc1cc(=O)[nH]c2c(F)cccc12)C1CC1 [Example 87, N-Cyclopropyl-N-((8-fluoro-2-oxo-1,2-dihydroquinolin-4-yl)methyl)-4-methylthiazole-5-carboxamide] | > 5
CC(C)c1ncc(-c2ccccc2)n1Cc1cc(=O)[nH]c2c(F)c(F)ccc12 [Example 255, 7,8-Difluoro-4-((2-isopropyl-5-phenyl-1H-imidazol-1-yl)methyl)quinolin-2(1H)-one] | > 5
O=c1cc(Cn2c(-c3ccc(F)cc3)nc3ccccc32)c2ccc(F)c(F)c2[nH]1 [Example 197, 7,8-Difluoro-4-((2-(4-fluorophenyl)-1H-benzo[d]imidazol-1-yl)methyl)quinolin-2(1H)-one] | > 5
